Test system: CYP1A2, 2B6, and 3A4
Assay: in vitro CYP induction
Assay type: in vitro ADME
Details: up to 10 μM

Compound: CCCCOc1nc(N)c2[nH]cc(Cc3ccc(CN4CCCC4)cc3)c2n1 [Compound 4]
- in vitro induction of CYP1A2, 2B6, and 3A4: not an in vitro inducer

Source: patent publication US12263172B2, “Toll-like receptor agonists for use in the treatment of hepatitis b” (priority 2019, dated 2025)
